Patent publication US20040068762A1, “Transgenic non-human mammals expressing a reporter nucleic acid under the regulation of androgen response elements” (priority 2002, published 2004)
Read-outs that look alike come from different tables or passages of the source.

Tested on: androgen receptor

Structure (SMILES) | luciferase induction over untreated (bone, testosterone 2 mg/kg s.c.) [fold] | luciferase response in kidney (testosterone induction) (kidney, testosterone 2 mg/kg s.c.) | luciferase induction over untreated (prostate-seminal vesicles, testosterone 2 mg/kg s.c.) [fold] | luciferase induction over untreated (quadriceps, testosterone 2 mg/kg s.c.) [fold] | inhibition of the testosterone effect (luciferase expression) (bone, Casodex 50 mg/kg p.o. with testosterone 2 mg/kg s.c.) [%] | luciferase response in kidney (inhibition of testosterone effect) (kidney, Casodex 50 mg/kg p.o. with testosterone 2 mg/kg s.c.) | inhibition of the testosterone effect (luciferase expression) (prostate-seminal vesicles, Casodex 50 mg/kg p.o. with testosterone 2 mg/kg s.c.) [%] | inhibition of the testosterone effect (luciferase expression) (quadriceps, Casodex 50 mg/kg p.o. with testosterone 2 mg/kg s.c.) [%]
C[C@]12CC[C@H]3[C@@H](CCC4=CC(=O)CC[C@@]43C)[C@@H]1CC[C@@H]2O [testosterone] | 3.3 | No response | 5.6 | 5.8 | – | – | – | –
CC(O)(CS(=O)(=O)c1ccc(F)cc1)C(=O)Nc1ccc(C#N)c(C(F)(F)F)c1 (centres unmarked) [bicalutamide] | – | – | – | – | 86 | No response | 90 | 92
